Experimental data reported in patent publication US12157741B2, “Macrocyclic inhibitors of DYRK1A” (DANA-FARBER CANCER INSTITUTE, INC., priority 2018, dated 2024).
Read-outs that look alike come from different tables or passages of the source.

Key:
Assay type in all cases: binding
various enzymes [1] = target: various enzymes (Homo sapiens, UniProt P04629); settings: compound 1 uM
Procedure: (§1) Ambit profiling was conducted in accordance with the manufacturer's instructions.

various enzymes [2] = target: various enzymes (Homo sapiens, UniProt Q16512); settings: compound 1 uM
Procedure: as §1

various enzymes [3] = target: various enzymes (Homo sapiens, UniProt Q9UKI8); settings: compound 1 uM
Procedure: as §1

various enzymes [4] = target: various enzymes (Homo sapiens, UniProt P07949); settings: compound 1 uM
Procedure: as §1

various enzymes [5] = target: various enzymes (Homo sapiens, UniProt Q09013); settings: compound 1 uM
Procedure: as §1

various enzymes [6] = target: various enzymes (Homo sapiens, UniProt Q13164); settings: compound 1 uM
Procedure: as §1

various enzymes [7] = target: various enzymes (Homo sapiens, UniProt P42336, E545K)
Procedure: as §1

various enzymes [8] = target: various enzymes (Homo sapiens, UniProt P43405); settings: compound 1 uM
Procedure: as §1

various enzymes [9] = target: various enzymes (Homo sapiens, UniProt Q86YV6); settings: compound 1 uM
Procedure: as §1

various enzymes [10] = target: various enzymes (Homo sapiens, UniProt O95835); settings: compound 1 uM
Procedure: as §1

various enzymes [11] = target: various enzymes (Homo sapiens, UniProt Q9H1R3); settings: compound 1 uM
Procedure: as §1

various enzymes [12] = target: various enzymes (Homo sapiens, UniProt Q7KZI7); settings: compound 1 uM
Procedure: as §1

various enzymes [13] = target: various enzymes (Homo sapiens, UniProt Q9Y2I7); settings: compound 1 uM
Procedure: as §1

various enzymes [14] = target: T1, various enzymes (Homo sapiens, UniProt Q12852); settings: compound 1 uM
T1 sequence (Q12852 1-859): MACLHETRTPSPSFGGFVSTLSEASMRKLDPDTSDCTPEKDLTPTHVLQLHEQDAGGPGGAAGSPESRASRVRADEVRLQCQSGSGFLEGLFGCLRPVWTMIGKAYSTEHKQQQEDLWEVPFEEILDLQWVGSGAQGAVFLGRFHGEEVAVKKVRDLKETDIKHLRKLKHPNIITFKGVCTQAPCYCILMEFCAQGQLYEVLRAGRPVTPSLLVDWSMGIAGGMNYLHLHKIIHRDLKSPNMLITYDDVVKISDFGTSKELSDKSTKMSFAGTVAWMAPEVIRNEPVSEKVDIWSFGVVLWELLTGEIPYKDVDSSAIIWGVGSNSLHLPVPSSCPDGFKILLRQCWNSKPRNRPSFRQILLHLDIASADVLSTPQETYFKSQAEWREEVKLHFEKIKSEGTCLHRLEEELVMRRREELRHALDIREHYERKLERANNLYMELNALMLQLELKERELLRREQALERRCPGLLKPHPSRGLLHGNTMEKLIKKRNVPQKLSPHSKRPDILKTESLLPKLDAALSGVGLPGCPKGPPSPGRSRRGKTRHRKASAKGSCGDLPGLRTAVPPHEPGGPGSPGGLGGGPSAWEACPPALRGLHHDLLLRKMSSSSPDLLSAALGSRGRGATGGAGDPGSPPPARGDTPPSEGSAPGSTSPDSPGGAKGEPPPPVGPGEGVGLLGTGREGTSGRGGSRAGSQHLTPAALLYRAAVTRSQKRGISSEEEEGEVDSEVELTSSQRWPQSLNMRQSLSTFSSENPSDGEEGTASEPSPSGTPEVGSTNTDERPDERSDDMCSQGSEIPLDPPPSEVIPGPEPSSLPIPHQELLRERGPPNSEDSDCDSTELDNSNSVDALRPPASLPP
Procedure: as §1

various enzymes [15] = target: various enzymes (Homo sapiens, UniProt Q5S007, G2019S)
Procedure: as §1

various enzymes [16] = target: various enzymes (Homo sapiens, UniProt P33981); settings: compound 1 uM
Procedure: as §1

various enzymes [17] = target: various enzymes (Homo sapiens, UniProt P11362); settings: compound 1 uM
Procedure: as §1

various enzymes [18] = target: various enzymes (Homo sapiens, UniProt P35626); settings: compound 1 uM
Procedure: as §1

various enzymes [19] = target: various enzymes (Homo sapiens, UniProt Q15569); settings: compound 1 uM
Procedure: as §1

various enzymes [20] = target: various enzymes (Homo sapiens, UniProt P78356); settings: compound 1 uM
Procedure: as §1

various enzymes [21] = target: various enzymes (Homo sapiens, UniProt P08581); settings: compound 1 uM
Procedure: as §1

various enzymes [22] = target: various enzymes (Homo sapiens, UniProt Q13546); settings: compound 1 uM
Procedure: as §1

various enzymes [23] = target: various enzymes (Homo sapiens, UniProt Q13882); settings: compound 1 uM
Procedure: as §1

various enzymes [24] = target: various enzymes (Homo sapiens, UniProt P49336); settings: compound 1 uM
Procedure: as §1

various enzymes [25] = target: various enzymes (Homo sapiens, UniProt P22455); settings: compound 1 uM
Procedure: as §1

various enzymes [26] = target: various enzymes (Homo sapiens, UniProt Q8N5S9); settings: compound 1 uM
Procedure: as §1

various enzymes [27] = target: various enzymes (Homo sapiens, UniProt Q92918); settings: compound 1 uM
Procedure: as §1

various enzymes [28] = target: various enzymes (Homo sapiens, UniProt P42685); settings: compound 1 uM
Procedure: as §1

various enzymes [29] = target: various enzymes (Homo sapiens, UniProt Q96Q40); settings: compound 1 uM
Procedure: as §1

various enzymes [30] = target: various enzymes (Homo sapiens, UniProt P14616); settings: compound 1 uM
Procedure: as §1

various enzymes [31] = target: various enzymes (Homo sapiens, UniProt Q96BR1); settings: compound 1 uM
Procedure: as §1

various enzymes [32] = target: various enzymes (Homo sapiens, UniProt P00533, L861Q)
Procedure: as §1

various enzymes [33] = target: various enzymes (Homo sapiens, UniProt Q96PN8); settings: compound 1 uM
Procedure: as §1

various enzymes (Homo sapiens, UniProt P78356), sequence (P78356 whole entry): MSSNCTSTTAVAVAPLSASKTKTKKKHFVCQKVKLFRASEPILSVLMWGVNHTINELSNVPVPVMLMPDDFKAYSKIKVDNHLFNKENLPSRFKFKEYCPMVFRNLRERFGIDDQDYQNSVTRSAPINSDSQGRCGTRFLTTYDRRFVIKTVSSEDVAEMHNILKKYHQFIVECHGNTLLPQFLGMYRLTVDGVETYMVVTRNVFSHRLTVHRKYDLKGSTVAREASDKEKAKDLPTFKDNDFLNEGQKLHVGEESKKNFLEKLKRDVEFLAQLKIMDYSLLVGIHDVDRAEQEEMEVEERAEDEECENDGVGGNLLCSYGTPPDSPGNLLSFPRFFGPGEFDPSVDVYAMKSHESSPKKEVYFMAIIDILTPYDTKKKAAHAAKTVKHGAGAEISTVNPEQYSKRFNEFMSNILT
various enzymes (Homo sapiens, UniProt Q92918), sequence (Q92918 whole entry): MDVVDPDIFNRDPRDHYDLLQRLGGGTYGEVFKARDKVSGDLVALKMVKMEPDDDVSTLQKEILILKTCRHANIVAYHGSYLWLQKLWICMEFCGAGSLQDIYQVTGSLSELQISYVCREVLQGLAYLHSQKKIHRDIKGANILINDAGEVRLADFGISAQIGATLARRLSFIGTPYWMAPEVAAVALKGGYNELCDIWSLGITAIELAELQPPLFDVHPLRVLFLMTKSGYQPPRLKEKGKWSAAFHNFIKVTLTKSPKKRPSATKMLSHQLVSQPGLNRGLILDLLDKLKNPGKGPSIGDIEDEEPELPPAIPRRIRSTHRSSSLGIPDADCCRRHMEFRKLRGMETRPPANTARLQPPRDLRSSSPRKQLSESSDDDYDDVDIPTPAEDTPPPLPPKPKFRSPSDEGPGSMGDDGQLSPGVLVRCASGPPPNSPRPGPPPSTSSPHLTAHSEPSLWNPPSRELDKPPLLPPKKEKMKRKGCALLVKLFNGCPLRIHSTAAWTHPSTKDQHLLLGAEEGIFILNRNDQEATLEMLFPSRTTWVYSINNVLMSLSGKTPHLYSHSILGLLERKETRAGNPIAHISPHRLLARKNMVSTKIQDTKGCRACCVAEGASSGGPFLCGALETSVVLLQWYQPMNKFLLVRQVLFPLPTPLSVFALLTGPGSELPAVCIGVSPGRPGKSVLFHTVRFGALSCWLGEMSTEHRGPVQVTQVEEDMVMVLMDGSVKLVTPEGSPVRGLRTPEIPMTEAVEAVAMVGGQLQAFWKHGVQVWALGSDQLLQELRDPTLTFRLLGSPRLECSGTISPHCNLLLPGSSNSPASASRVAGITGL
various enzymes (Homo sapiens, UniProt Q5S007, G2019S), sequence (Q5S007 whole entry G2019S): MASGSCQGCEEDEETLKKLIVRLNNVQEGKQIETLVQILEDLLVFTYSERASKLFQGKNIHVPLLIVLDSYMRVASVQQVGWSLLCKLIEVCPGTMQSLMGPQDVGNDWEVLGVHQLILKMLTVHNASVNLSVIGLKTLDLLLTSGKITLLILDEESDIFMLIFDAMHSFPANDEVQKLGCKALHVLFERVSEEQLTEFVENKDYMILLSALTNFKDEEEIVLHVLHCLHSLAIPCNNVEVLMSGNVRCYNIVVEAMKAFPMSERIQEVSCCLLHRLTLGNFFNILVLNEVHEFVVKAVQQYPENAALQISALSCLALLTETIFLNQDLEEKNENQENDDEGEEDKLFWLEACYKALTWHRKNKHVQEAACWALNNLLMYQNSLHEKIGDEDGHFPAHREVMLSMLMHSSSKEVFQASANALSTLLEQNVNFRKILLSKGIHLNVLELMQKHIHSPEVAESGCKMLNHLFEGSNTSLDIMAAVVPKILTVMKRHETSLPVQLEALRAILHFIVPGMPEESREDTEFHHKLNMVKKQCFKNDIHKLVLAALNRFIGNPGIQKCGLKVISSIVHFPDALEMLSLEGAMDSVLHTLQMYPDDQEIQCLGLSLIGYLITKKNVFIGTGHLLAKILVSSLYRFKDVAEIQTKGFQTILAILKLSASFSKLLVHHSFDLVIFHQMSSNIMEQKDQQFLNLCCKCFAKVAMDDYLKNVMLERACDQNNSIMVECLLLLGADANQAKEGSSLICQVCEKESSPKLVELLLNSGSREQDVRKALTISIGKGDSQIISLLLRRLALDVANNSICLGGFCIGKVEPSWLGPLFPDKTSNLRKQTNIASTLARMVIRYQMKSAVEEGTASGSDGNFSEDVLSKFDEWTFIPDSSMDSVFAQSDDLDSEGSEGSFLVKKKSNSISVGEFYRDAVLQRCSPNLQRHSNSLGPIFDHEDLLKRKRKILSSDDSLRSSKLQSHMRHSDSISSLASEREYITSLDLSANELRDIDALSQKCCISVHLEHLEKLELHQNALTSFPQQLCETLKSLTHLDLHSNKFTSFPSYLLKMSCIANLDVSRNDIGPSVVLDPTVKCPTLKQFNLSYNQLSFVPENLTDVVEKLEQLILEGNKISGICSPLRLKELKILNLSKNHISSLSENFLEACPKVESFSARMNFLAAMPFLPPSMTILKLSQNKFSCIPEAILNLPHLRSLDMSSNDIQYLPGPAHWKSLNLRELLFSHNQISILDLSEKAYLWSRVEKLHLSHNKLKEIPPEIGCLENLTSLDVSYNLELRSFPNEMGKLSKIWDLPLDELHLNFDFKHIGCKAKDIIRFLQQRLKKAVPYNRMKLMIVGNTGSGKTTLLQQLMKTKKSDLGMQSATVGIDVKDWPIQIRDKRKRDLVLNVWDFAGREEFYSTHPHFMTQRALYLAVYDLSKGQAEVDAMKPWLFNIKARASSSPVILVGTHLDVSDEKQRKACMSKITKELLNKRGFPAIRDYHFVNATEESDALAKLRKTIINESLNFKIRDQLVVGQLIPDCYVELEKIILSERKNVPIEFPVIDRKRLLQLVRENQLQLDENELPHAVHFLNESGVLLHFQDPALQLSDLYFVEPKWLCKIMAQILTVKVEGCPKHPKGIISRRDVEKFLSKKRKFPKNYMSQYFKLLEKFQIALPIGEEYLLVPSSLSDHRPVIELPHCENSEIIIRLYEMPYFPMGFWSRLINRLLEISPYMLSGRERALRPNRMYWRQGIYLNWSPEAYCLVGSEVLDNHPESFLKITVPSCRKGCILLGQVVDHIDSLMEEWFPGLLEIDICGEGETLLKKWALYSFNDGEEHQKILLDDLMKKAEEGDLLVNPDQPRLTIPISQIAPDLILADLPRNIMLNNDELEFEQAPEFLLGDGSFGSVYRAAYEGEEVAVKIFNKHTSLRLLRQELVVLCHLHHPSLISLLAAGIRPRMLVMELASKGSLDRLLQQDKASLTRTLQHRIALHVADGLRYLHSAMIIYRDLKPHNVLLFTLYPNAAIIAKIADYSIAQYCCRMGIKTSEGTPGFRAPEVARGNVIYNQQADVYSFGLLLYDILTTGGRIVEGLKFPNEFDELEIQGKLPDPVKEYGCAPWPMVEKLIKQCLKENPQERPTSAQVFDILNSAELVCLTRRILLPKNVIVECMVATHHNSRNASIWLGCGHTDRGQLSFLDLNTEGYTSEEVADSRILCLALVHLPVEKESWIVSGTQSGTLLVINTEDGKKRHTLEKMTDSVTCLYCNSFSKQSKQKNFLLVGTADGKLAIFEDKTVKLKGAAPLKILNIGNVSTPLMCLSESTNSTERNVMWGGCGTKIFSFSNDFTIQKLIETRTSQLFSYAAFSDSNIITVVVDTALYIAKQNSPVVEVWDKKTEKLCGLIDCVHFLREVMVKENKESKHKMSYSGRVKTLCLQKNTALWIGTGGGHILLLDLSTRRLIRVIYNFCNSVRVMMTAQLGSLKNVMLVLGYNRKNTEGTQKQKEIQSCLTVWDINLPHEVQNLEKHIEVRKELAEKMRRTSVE
various enzymes (Homo sapiens, UniProt P33981), sequence (P33981 whole entry): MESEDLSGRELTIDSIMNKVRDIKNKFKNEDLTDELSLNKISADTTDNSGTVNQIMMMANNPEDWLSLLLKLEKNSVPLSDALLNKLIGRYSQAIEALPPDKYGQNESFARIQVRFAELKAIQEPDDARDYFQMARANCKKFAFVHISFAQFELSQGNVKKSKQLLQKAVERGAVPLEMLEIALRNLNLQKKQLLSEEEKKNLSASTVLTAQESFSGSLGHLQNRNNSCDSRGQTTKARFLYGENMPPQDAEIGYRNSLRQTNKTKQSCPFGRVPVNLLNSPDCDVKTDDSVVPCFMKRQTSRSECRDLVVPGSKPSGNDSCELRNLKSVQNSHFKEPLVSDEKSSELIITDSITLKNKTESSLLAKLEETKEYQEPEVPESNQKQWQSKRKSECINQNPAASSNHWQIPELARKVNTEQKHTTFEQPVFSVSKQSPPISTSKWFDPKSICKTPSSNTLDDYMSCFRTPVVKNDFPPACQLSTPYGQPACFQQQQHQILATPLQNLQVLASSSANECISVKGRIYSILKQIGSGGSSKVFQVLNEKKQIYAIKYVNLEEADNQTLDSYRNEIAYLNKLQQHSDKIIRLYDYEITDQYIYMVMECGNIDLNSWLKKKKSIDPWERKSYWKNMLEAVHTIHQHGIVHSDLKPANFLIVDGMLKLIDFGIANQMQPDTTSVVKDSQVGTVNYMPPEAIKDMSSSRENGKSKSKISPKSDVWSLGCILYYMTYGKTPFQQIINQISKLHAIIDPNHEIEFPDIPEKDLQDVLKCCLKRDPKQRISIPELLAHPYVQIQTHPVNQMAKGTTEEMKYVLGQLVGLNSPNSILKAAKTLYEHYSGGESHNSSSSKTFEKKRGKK
various enzymes (Homo sapiens, UniProt Q86YV6), sequence (Q86YV6 whole entry): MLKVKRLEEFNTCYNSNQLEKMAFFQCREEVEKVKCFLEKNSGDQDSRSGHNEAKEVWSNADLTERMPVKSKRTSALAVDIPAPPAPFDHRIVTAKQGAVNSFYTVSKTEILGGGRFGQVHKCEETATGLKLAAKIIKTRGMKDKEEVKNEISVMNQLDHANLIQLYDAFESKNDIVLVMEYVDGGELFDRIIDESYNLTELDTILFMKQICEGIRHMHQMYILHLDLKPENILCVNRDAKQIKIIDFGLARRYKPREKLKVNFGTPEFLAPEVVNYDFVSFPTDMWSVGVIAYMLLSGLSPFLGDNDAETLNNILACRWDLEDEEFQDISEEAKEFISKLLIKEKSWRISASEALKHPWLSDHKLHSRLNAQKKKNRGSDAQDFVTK

Structure (SMILES): COc1c2c(nn1C)CN(C(C)C)C(=O)CCCn1cc(c(C(F)(F)F)n1)-c1c[nH]c3ncc-2cc13 [Compound 50, (Z)-5-isopropyl-35-methoxy-31-methyl-13-(trifluoromethyl)-11H,21H,31H-5-aza-2(3,5)-pyrrolo[2,3-b]pyridina-1(4,1),3(4,3)-dipyrazolacyclononaphan-6-one]
- Ambit profiling: TBKA (various enzymes [1]): 0
- Ambit profiling: PKN1 (various enzymes [2]): 34
- Ambit profiling: TLK1 (various enzymes [3]): 58
- Ambit profiling: RET (various enzymes [4]): 0.1
- Ambit profiling: DMPK (various enzymes [5]): 100
- Ambit profiling: ERK5 (various enzymes [6]): 70
- Ambit profiling: PIK3CA(E545K) (various enzymes [7]): 74
- Ambit profiling: SYK (various enzymes [8]): 26
- Ambit profiling: MYLK4 (various enzymes [9]): 77
- Ambit profiling: LATS1 (various enzymes [10]): 72
- Ambit profiling: MYLK2 (various enzymes [11]): 39
- Ambit profiling: MARK2 (various enzymes [12]): 100
- Ambit profiling: PIKFYVE (various enzymes [13]): 11
- Ambit profiling: DLK (various enzymes [14]): 25
- Ambit profiling: LRRK2(G2019S) (various enzymes [15]): 27
- Ambit profiling: TTK (various enzymes [16]): 23
- Ambit profiling: FGFR1 (various enzymes [17]): 5.8
- Ambit profiling: GRK3 (various enzymes [18]): 85
- Ambit profiling: TESK1 (various enzymes [19]): 69
- Ambit profiling: PIP5K2B (various enzymes [20]): 35
- Ambit profiling: MET (various enzymes [21]): 3.8
- Ambit profiling: RIPK1 (various enzymes [22]): 59
- Ambit profiling: BRK (various enzymes [23]): 80
- Ambit profiling: CDK8 (various enzymes [24]): 67
- Ambit profiling: FGFR4 (various enzymes [25]): 79
- Ambit profiling: CAMKK1 (various enzymes [26]): 8
- Ambit profiling: HPK1 (various enzymes [27]): 0
- Ambit profiling: FRK (various enzymes [28]): 10
- Ambit profiling: PFTAIRE2 (various enzymes [29]): 60
- Ambit profiling: INSRR (various enzymes [30]): 56
- Ambit profiling: SGK3 (various enzymes [31]): 50
- Ambit profiling: EGFR(L861Q) (various enzymes [32]): 17
- Ambit profiling: TSSK3 (various enzymes [33]): 100

Structure (SMILES): CC(C)N1Cc2nn(C)cc2-c2cnc3[nH]cc(c3c2)-c2cn(nc2C(F)(F)F)CCCC1=O [Compound 45, (Z)-5-isopropyl-31-methyl-13-(trifluoromethyl)-11H,21H,31H-5-aza-2(3,5)-pyrrolo[2,3-b]pyridina-1(4,1),3(4,3)-dipyrazolacyclononaphan-6-one]
- Ambit profiling: TRKA (various enzymes [1]): 0
- Ambit profiling: PKN1 (various enzymes [2]): 72
- Ambit profiling: TLK1 (various enzymes [3]): 55
- Ambit profiling: RET (various enzymes [4]): 0.15
- Ambit profiling: DMPK (various enzymes [5]): 20
- Ambit profiling: ERK5 (various enzymes [6]): 100
- Ambit profiling: PIK3CA(E545K) (various enzymes [7]; compound 1 uM): 51
- Ambit profiling: SYK (various enzymes [8]): 35
- Ambit profiling: MYLK4 (various enzymes [9]): 100
- Ambit profiling: LATS1 (various enzymes [10]): 100
- Ambit profiling: MYLK2 (various enzymes [11]): 29
- Ambit profiling: MARK2 (various enzymes [12]): 48
- Ambit profiling: PIKFYVE (various enzymes [13]): 13
- Ambit profiling: DLK (various enzymes [14]): 32
- Ambit profiling: LRRK2(G2019S) (various enzymes [15]; compound 1 uM): 53
- Ambit profiling: TTK (various enzymes [16]): 20
- Ambit profiling: FGFR1 (various enzymes [17]): 2.5
- Ambit profiling: GRK3 (various enzymes [18]): 100
- Ambit profiling: TESK1 (various enzymes [19]): 99
- Ambit profiling: PIP5K2B (various enzymes [20]): 23
- Ambit profiling: MET (various enzymes [21]): 11
- Ambit profiling: RIPK1 (various enzymes [22]): 85
- Ambit profiling: BRK (various enzymes [23]): 100
- Ambit profiling: CDK8 (various enzymes [24]): 100
- Ambit profiling: FGFR4 (various enzymes [25]): 85
- Ambit profiling: CAMKK1 (various enzymes [26]): 3.6
- Ambit profiling: HPK1 (various enzymes [27]): 5.9
- Ambit profiling: FRK (various enzymes [28]): 11
- Ambit profiling: PFTAIRE2 (various enzymes [29]): 39
- Ambit profiling: INSRR (various enzymes [30]): 51
- Ambit profiling: SGK3 (various enzymes [31]): 30
- Ambit profiling: EGFR(L861Q) (various enzymes [32]; compound 1 uM): 28
- Ambit profiling: TSSK3 (various enzymes [33]): 90
